Laboratory results reported in ChEMBL document CHEMBL1143995, “Virtual screening approaches for the identification of non-lipid autotaxin inhibitors” (Bioorg Med Chem, 2008).

Target: Autotaxin (Homo sapiens) (UniProt Q13822)
Settings: MDA-MB-435, at 10 µM
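Further: activity read as cleavage of a fluorescent lysophosphatidylcholine analog by autotaxin expressed in the cells.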

Description: Inhibition of human autotaxin expressed in MDA-MB-435 cells assessed as fluorescent lysophosphatidyl choline analog hydrolysis at 10 uM

In the case of `O=C(O)c1ccc(Oc2ccc(C(=O)c3ccc4c(c3)C(=O)N(c3ccc([N+](=O)[O-])cc3)C4=O)cc2)cc1`, the inhibition is reported as 90%.

Molecule `O=C(NC1c2ccccc2Oc2ccccc21)c1ccc(C(=O)NC2c3ccccc3Oc3ccccc32)cc1` has an inhibition of 91%.

`COC(=O)c1ccc(N2C(=O)c3ccc(C(=O)c4ccc5c(c4)C(=O)N(c4ccc(C(=O)OC)cc4)C5=O)cc3C2=O)cc1` showed an inhibition of 65%.

Molecule `O=C(O)c1cccc(NC(=O)c2ccc3c(c2)C(=O)N(Cc2cccnc2)C3=O)c1` has an inhibition of 56%.

`O=C(O)c1ccc(Oc2ccc(C(=O)c3ccc4c(c3)C(=O)N(c3ccc(O)cc3)C4=O)cc2)cc1` gave an inhibition of 62%.

With `O=C(/C=C/c1cccc(N2C(=O)c3ccc(C(=O)c4cccc([N+](=O)[O-])c4)cc3C2=O)c1)c1ccccc1` the inhibition was 90%.

Molecule `COc1ccc(N2C(=O)c3ccc(C(=O)Nc4cccc(C(=O)O)c4)cc3C2=O)cc1` has an inhibition of 58%.

`CC(=O)OCCN1C(=O)c2ccc(C(=O)c3ccc4c(c3)C(=O)N(CCOC(C)=O)C4=O)cc2C1=O` showed an inhibition of 91%.

Work on `Cc1ccc(C(=O)O)cc1N1C(=O)c2ccc(C(=O)c3ccc4c(c3)C(=O)N(c3cc(C(=O)O)ccc3C)C4=O)cc2C1=O` yielded an inhibition of 83%.

`O=S(=O)(O)c1cc(O)c2c(/N=N/c3c(S(=O)(=O)O)cc4cc(S(=O)(=O)O)cc(O)c4c3O)cc(S(=O)(=O)O)cc2c1` was tested, and the inhibition was 85%.

In the case of `Cc1c(N2C(=O)c3ccc(C(=O)c4ccc5c(c4)C(=O)N(c4c(C)n(C)n(-c6ccccc6)c4=O)C5=O)cc3C2=O)c(=O)n(-c2ccccc2)n1C`, the inhibition is reported as 67%.

`O=C(O)c1cccc(NC(=O)c2ccc3c(c2)C(=O)N(c2ccc(/N=N/c4ccccc4)cc2)C3=O)c1` gave an inhibition of 45%.

`Cc1ccc(/N=N/c2cc(C)ccc2NC(=O)c2ccc(Oc3ccc(C(=O)Nc4ccc(C)cc4/N=N/c4ccc(C)cc4)cc3)cc2)cc1` was tested, and the inhibition was 93%.

`CCCCCCCOC(=O)c1ccc(N2C(=O)c3ccc(C(=O)c4ccc5c(c4)C(=O)N(c4ccc(C(=O)OCCCCCCC)cc4)C5=O)cc3C2=O)cc1` gave an inhibition of 58%.

Molecule `O=C(O)c1cn(C2CC2)c2cc(N3CCN(C(=S)Nc4ccc5c(c4)OCCO5)CC3)c(F)cc2c1=O` has an inhibition of 91%.

Molecule `O=C(O)c1ccc(CN2C(=O)c3ccc(C(=O)c4ccc5c(c4)C(=O)N(Cc4ccc(C(=O)O)cc4)C5=O)cc3C2=O)cc1` has an inhibition of 46%.

With `O=C(O)c1ccc(Oc2ccc(C(=O)c3ccc4c(c3)C(=O)N(c3ccccc3C(=O)O)C4=O)cc2)cc1` the inhibition was 71%.

`CCn1cc(C(=O)O)c(=O)c2cnc(N3CCN(C(=S)NC(=O)c4c(-c5ccccc5)noc4C)CC3)nc21` gave an inhibition of 78%.

For `O=C(c1ccc2c(c1)C(=O)N(N1C(=O)c3ccccc3C1=O)C2=O)c1ccc2c(c1)C(=O)N(N1C(=O)c3ccccc3C1=O)C2=O`, the inhibition was 90%.

Work on `O=C(c1ccc2c(c1)C(=O)N(Cc1ccccc1)C2=O)c1ccc2c(c1)C(=O)N(Cc1ccccc1)C2=O` yielded an inhibition of 67%.

In the case of `Oc1ccc(/N=N/c2ccccc2Br)cc1/C=N/c1ccc(I)cc1`, the inhibition is reported as 87%.

With `O=C(O)c1cc(NC(=O)c2ccc3c(c2)C(=O)N(Cc2cccnc2)C3=O)cc(C(=O)O)c1` the inhibition was 86%.

For `Cc1cc(=O)oc2cc(OCC(=O)NC(CC(=O)O)C(=O)O)ccc12` (stereo not given), the inhibition was 85%.

Molecule `O=C(O)c1ccc2c(c1)C(=O)N(c1ccc(/N=N/c3ccccc3)cc1)C2=O` has an inhibition of 82%.

Molecule `CCn1cc(C(=O)O)c(=O)c2cc(F)c(N3CCN(C(=S)NC4CC5CCC4C5)CC3)cc21` (stereo not given) has an inhibition of 83%.

`Cc1ccc(/N=N/c2cc(C)ccc2NC(=O)c2ccc3c(c2)C(=O)N(N2C(=O)c4ccccc4C2=O)C3=O)cc1` showed an inhibition of 81%.

`O=C(c1ccc2c(c1)C(=O)N(c1cccc3ccccc13)C2=O)c1ccc2c(c1)C(=O)N(c1cccc3ccccc13)C2=O` was tested, and the inhibition was 59%.

`CCn1cc(C(=O)O)c(=O)c2cnc(N3CCN(C(=S)NC(CC(=O)OC)C(=O)OC)CC3)nc21` (stereo not given) was tested, and the inhibition was 62%.

`O=C(O)c1ccc2c(c1)C(=O)N(c1cccc(-c3nc4ccccc4c(=O)o3)c1)C2=O` was tested, and the inhibition was 71%.

`O=C(/C=C/c1cccs1)NC(=S)N1CCCCCC1` was tested, and the inhibition was 88%.

For `CCOc1ccccc1N1C(=O)c2ccc(C(=O)c3ccc4c(c3)C(=O)N(c3ccccc3OCC)C4=O)cc2C1=O`, the inhibition was 86%.

Work on `Cc1c(NS(=O)(=O)CC23CCC(CC2=O)C3(C)C)c(=O)n(-c2ccccc2)n1C` (stereo not given) yielded an inhibition of 88%.

`O=C(O)c1ccc(Oc2ccc(C(=O)c3ccc4c(c3)C(=O)N(c3cccc5ccccc35)C4=O)cc2)cc1` was tested, and the inhibition was 31%.

`CCS(=O)(=O)N1N=C(c2ccc(NS(C)(=O)=O)cc2)CC1c1ccc(OC)cc1` (stereo not given) gave an inhibition of 89%.

For `Oc1cccc(/C=N/c2ccc(/N=N/c3ccccc3)cc2)c1O`, the inhibition was 86%.

`O=C(Cc1ccccc1)Nc1cccc(N2C(=O)c3ccc(C(=O)O)cc3C2=O)c1` was tested, and the inhibition was 74%.

For `O=C(O)c1cccc(NC(=O)c2ccc3c(c2)C(=O)N(c2nccs2)C3=O)c1`, the inhibition was 71%.

In the case of `O=C(c1ccc2c(c1)C(=O)N(c1ccc(Br)cc1)C2=O)c1ccc2c(c1)C(=O)N(c1ccc(Br)cc1)C2=O`, the inhibition is reported as 93%.

Work on `O=C(NN1C(=O)c2ccc(C(=O)c3ccc4c(c3)C(=O)N(NC(=O)c3ccncc3)C4=O)cc2C1=O)c1ccncc1` yielded an inhibition of 31%.

For `CC(=O)Nc1ccc(N2C(=O)c3ccc(C(=O)c4ccc5c(c4)C(=O)N(c4ccc(NC(C)=O)cc4)C5=O)cc3C2=O)cc1`, the inhibition was 59%.

For `CC(=O)OCCCN1C(=O)c2ccc(C(=O)c3ccc4c(c3)C(=O)N(CCCOC(C)=O)C4=O)cc2C1=O`, the inhibition was 58%.

Work on `CCCCN1C(=O)c2ccc(C(=O)Nc3cc(C(=O)O)cc(C(=O)O)c3)cc2C1=O` yielded an inhibition of 89%.

Molecule `O=C(O)c1cc(C(=O)O)cc(N2C(=O)c3ccc(C(=O)c4ccc5c(c4)C(=O)N(c4cc(C(=O)O)cc(C(=O)O)c4)C5=O)cc3C2=O)c1` has an inhibition of 49%.

For `Cc1cc(=O)oc2c(/C=N/c3ccc(/N=N/c4ccccc4)cc3)c(O)ccc12`, the inhibition was 91%.

Work on `O=C(Nc1ccc(O)c(C(=O)O)c1)c1ccc2c(c1)C(=O)N(CC1CCCO1)C2=O` (stereo not given) yielded an inhibition of 67%.

`CCn1c(SCC(=O)Nc2ccc(C(C)=O)cc2)nc2nc3c(cc2c1=O)CCCC3` was tested, and the inhibition was 21%.

`Cc1ccc(NC(=S)NC(=O)C2CCCC2)cc1C` gave an inhibition of 90%.

`CCn1cc(C(=O)O)c(=O)c2cnc(N3CCN(C(=S)Nc4cc(Cl)cc(Cl)c4)CC3)nc21` showed an inhibition of 0%.

In the case of `CC(C)(C)c1ccc(C(=O)NC(=S)N2CCCC2)cc1`, the inhibition is reported as 76%.

Work on `O=C(O)c1ccc2c(c1)C(=O)N(c1ccc(-c3nnc(-c4ccccc4)o3)cc1)C2=O` yielded an inhibition of 87%.

`CC(=O)Nc1ccc(/N=N/c2c(S(=O)(=O)O)cc3cc(NC(=O)Nc4ccc5c(O)c(/N=N/c6ccccc6)c(S(=O)(=O)O)cc5c4)ccc3c2O)cc1` showed an inhibition of 71%.

With `Cc1ccnc(N2C(=O)c3ccc(C(=O)c4ccc5c(c4)C(=O)N(c4cc(C)ccn4)C5=O)cc3C2=O)c1` the inhibition was 91%.

With `O=C(O)c1ccc2c(c1)C(=O)N(c1ccc(C(=O)OCC(=O)c3ccccc3)cc1)C2=O` the inhibition was 71%.

`CC(=O)Oc1ccc(N2C(=O)c3ccc(C(=O)c4ccc5c(c4)C(=O)N(c4ccc(OC(C)=O)cc4C(=O)O)C5=O)cc3C2=O)c(C(=O)O)c1` showed an inhibition of 53%.

For `CC(=O)Oc1cccc(N2C(=O)c3ccc(C(=O)c4ccc5c(c4)C(=O)N(c4cccc(OC(C)=O)c4)C5=O)cc3C2=O)c1`, the inhibition was 80%.

Work on `O=C(O)c1ccc2c(c1)C(=O)N(c1cccc(N3C(=O)c4ccc(C(=O)O)cc4C3=O)n1)C2=O` yielded an inhibition of 89%.

With `O=C(O)c1ccc2c(c1)C(=O)N(c1ccc(Cl)c(NC(=O)c3ccc4ccccc4c3O)c1)C2=O` the inhibition was 86%.

`Cc1ccc(N2C(=O)c3ccc(C(=O)c4ccc5c(c4)C(=O)N(c4ccc(C)cc4C(=O)O)C5=O)cc3C2=O)c(C(=O)O)c1` showed an inhibition of 70%.

`O=C(O)c1ccc2c(c1)C(=O)N(c1cccc(C(=O)Nc3cccc(Cl)c3)c1)C2=O` was tested, and the inhibition was 48%.

For `Cc1ccccc1NC(=O)c1cccc(N2C(=O)c3ccc(C(=O)O)cc3C2=O)c1`, the inhibition was 79%.

`CC(C)C(=O)NC(=S)Nc1ccc(N2CCOCC2)cc1` showed an inhibition of 80%.

`CCCCOC(=O)c1ccccc1N1C(=O)c2ccc(C(=O)c3ccc4c(c3)C(=O)N(c3ccccc3C(=O)OCCCC)C4=O)cc2C1=O` showed an inhibition of 87%.

With `O=C(Cc1ccccc1)Nc1cc(N2C(=O)c3ccc(C(=O)O)cc3C2=O)ccc1Cl` the inhibition was 74%.

`CCn1cc(C(=O)O)c(=O)c2cnc(N3CCN(C(=S)Nc4cc5oc6ccccc6c5cc4OC)CC3)nc21` was tested, and the inhibition was 88%.

`COCC(=O)N1N=C(c2cccc(NS(C)(=O)=O)c2)CC1c1cccc([N+](=O)[O-])c1` (stereo not given) showed an inhibition of 85%.

In the case of `O=C(O)c1ccc2c(c1)C(=O)N(c1ccc(Oc3ccc([N+](=O)[O-])cc3)cc1)C2=O`, the inhibition is reported as 70%.

In the case of `O=C(O)c1cccc(NC(=O)c2ccc3c(c2)C(=O)N(C2CCCCC2)C3=O)c1`, the inhibition is reported as 55%.

`O=C(c1ccc2c(c1)C(=O)N(c1ccccc1-c1ccccc1)C2=O)c1ccc2c(c1)C(=O)N(c1ccccc1-c1ccccc1)C2=O` showed an inhibition of 91%.

Molecule `O=C(O)c1cccc(NC(=O)c2ccc3c(c2)C(=O)N(c2ccccc2)C3=O)c1` has an inhibition of 79%.

`O=C(O)c1cc(NC(=O)c2ccc3c(c2)C(=O)N(CC2CCCO2)C3=O)cc(C(=O)O)c1` (stereo not given) showed an inhibition of 71%.
